Results on two molecules are retold here after patent publication US12419863B2, “Pharmaceutical composition for use in treatment of hypertrophic cardiomyopathy” (CELLTRION INC., priority 2018, dated 2025).

The conditions of series [1]: patients with hypertrophic cardiomyopathy; no control group; cited from earlier work.
Series [2] can be described thus: Clinical safety and tolerability evaluation with electrocardiogram, repeated oral administration (Example 2). The format is in vivo, human. The settings on record: cohorts 4 and 5: 200 mg once a day for 5 days and 300 mg once a day for 14 days, healthy subjects.
Series [3] in a line: Clinical safety and tolerability evaluation with 12-electrode electrocardiogram, single oral administration (Example 1). To be noted: healthy subjects; for QRS / QTcF: oral.
Protocol: Randomized, double-blind, placebo-controlled, sequential, ascending, single dosing studies were conducted to evaluate safety, tolerability, pharmacokinetics and pharmacodynamics of cibenzoline.
In this study, a total of 24 subjects were randomly assigned 1:1:1 to three cohorts and proceeded in a total of four stages: screening, treatment period 1, withdrawal period, and treatment period 2. The ratio between the dosed group and the non-dosed group (placebo) is assigned as 6:2.
The main endpoints are safety, tolerability and side effects, and the clinical test items are corrected QT interval (calculated by Fridericia formula) [QTc(F)]), QT interval, and QRS interval, PR interval, and 12-electrode electrocardiogram including ventricular rate, vital signs (blood pressure, pulse, body temperature, respiration rate), hypersensitivity reaction (determined by electrocardiogram recording and vital signs), clinical inspection evaluation (hematology, blood chemistry, urinalysis, etc.), adverse reactions (including serious adverse reactions).
The mark [4] stands for this setting: Cohort 1: 200 mg once, Day 1, 1.5 h after administration.
Setting [5] is: Cohort 1: 200 mg once, Day 1, 3 h after administration.
Setting [6] is: Cohort 1: 200 mg once, Day 1, 8 h after administration.
[7] abbreviates: Cohort 1: 200 mg once, Day 1 before administration (baseline).
Setting [8] is: Cohort 2: 300 mg once, Day 1, 1.5 h after administration.
[9] abbreviates: Cohort 2: 300 mg once, Day 1, 3 h after administration.
Where [10] appears, read: Cohort 2: 300 mg once, Day 1, 8 h after administration.
[11] abbreviates: Cohort 2: 300 mg once, Day 1 before administration (baseline).

As for `c1ccc(C2(c3ccccc3)CC2C2=NCCN2)cc1` (racemic) [cibenzoline, 2-(2,2-diphenylcyclopropyl)-4,5-dihydro-1H-imidazole], the “side effects compared with disopyramide” value in series [1] is recorded as “fewer side effects than disopyramide”.

`c1ccc(C2(c3ccccc3)CC2C2=NCCN2)cc1` (stereo not drawn) [S(−)-cibenzoline]: the “effects of QcTF and QRS prolongation (electrocardiography)” value is “QcTF and QRS prolongation were confirmed” in series [2]; “QcTF and QRS prolongation were confirmed” in series [3] (cohorts 1 and 2: 200 mg and 300 mg, single oral administration). In addition, the “side effects for multiple administration (safety and tolerability)” value in series [2] (compared to cohort 6 (racemic mixture 150 mg 3 times a day, 14 days)) was “did not cause significant side effects”. Further, in series [3] (200 mg and 300 mg once a day, single oral administration, compared to cohort 3 (racemic mixture 150 mg 3 times a day)), the “side effects (safety and tolerability)” value was “did not cause significant side effects”. Also, the QRS in series [3] (setting [4]) is on record as 102 ms; in series [3] (setting [5]), 107 ms; in series [3] (setting [6]), 99 ms; in series [3] (setting [7]), 92 ms; in series [3] (setting [8]), 107 ms; in series [3] (setting [9]), 116 ms. For the same molecule, the figures for the QRS in series [3] (setting [10]) and in series [3] (setting [11]) were 107 ms and 101 ms, respectively. The QTcF in series [3] (setting [4]) was found to be 412 ms; in series [3] (setting [5]) it was 426 ms; in series [3] (setting [6]) it was 408 ms; in series [3] (setting [7]), 406 ms; in series [3] (setting [8]), 419 ms; in series [3] (setting [9]) it was 429 ms. In addition, the results for the QTcF in series [3] (setting [10]) and in series [3] (setting [11]) were 415 ms and 411 ms, respectively.
